Data: patent US20060167106A1, “Compounds acting at the centrosome” (priority 2004, published 2006)
“Also recorded” adds a separate entry of the source. Residues, ends and D or L forms follow the SMILES beside them. *: point of attachment. Cbz = O=C(OCc1ccccc1)*

Columns and labels:
CHO cells = assay: Cell morphology, simultaneous time-lapse imaging of CHO cells; assay type: cell-based, Chinese hamster
Experimental: CV-1 cells and CHO cells were previously cultured in 2-well chambered cover-slips for 48 hours and incubated in 15 mM HEPES buffer-containing Ham's F-12/DMEM medium with different compounds. The cells were imaged using phase contrast settings with the Nikon TE300 microscope/digital imaging system. The cells were imaged ‘simultaneously’ under control of MetaVue software by capturing frames for cells from different conditions at the same time period using a motorized automated XYZ stage.
To track the effect of Compound 1 on live cells, non-transfected CV-1 cells with were treated with 500 nM Compound 1 and phase contrast time-lapse images were taken every 10 seconds. […] A very low concentration of Taxol (10 nM) was used.

Hsp70 = Hsp70 Western blotting in MDA-435 cells; assay type: cell-based; conditions: 0.5 μM; for percentage change in Hsp70 expression relative to DMSO control: normalized to background and GAPDH
Experimental: Calculations of the percentage changes were made by using the automated band analysis tools of the Kodak 1D (v.3.6.3) program. Band intensities were normalized to background and GAPDH.
MDA-435 breast cancer cells were grown in 100 mm plastic-tissue culture dishes and treated for 6 and 24 hours with 0.5 μM Taxol, Compound 1, Taxol+Compound 1, MG132, ALLN, or DMSO. After treatment, cells were washed in PBS and cell lysates were prepared by adding 100 μL of lysis buffer, which contained 20 mM Tris-HCl (pH 7.5), 150 mM NaCl, 1 mM Na2EDTA, 1 mM EGTA, 1% Triton, 2.5 mM sodium pyrophosphate, 1 mM β-glycerophosphate, 1 mM Na3VO4 and 1 μg/ml leupeptin (Cell Signaling Technology, Beverly, Mass.) supplemented with 1 mM PMSF (Sigma, St. Louis, Mo.) immediately before use, on ice for 1 hour. After scraping, the lysates were cleared by centrifugation at 13,000 RPM for 10 minutes at 4° C. Protein content was determined using a Bradford assay and bovine serum albumin as a standard (Bio-Rad Laboratories, Hercules, Calif.). Samples were solubilized by boiling in SDS sample buffer and subjected to SDS-PAGE. The proteins were subsequently transferred to a PVDF membrane (Bio-Rad, Hercules, Calif.). After blocking with 5% nonfat milk in TBS for 1 hour, the blots were incubated with a mouse monoclonal anti-Hsp70 antibody, which is specific for the inducible form of Hsp70 (Clone C92F3A-5, 1:1000 dilution, Stressgen Biotechnologies Corp., Victoria, B.C., Canada) or a rabbit polyclonal anti-GAPDH antibody (1:2000 dilution, Abcam, Cambridge, Mass.) for 2 hours at room temperature. The horseradish-peroxidase-conjugated secondary antibodies, anti-mouse horse radish peroxidase, (1:2000, Bio-Rad, Hercules, Calif.) and goat anti-rabbit polyclonal horse radish peroxidase (1:2000, Abcam, Cambridge, Mass.)) were diluted in blocking buffer and incubated with the blot for 1 hour at room temperature. The secondary antibodies were detected by enhanced chemiluminescence (ECL, Amersham Biosciences, Piscataway, N.J.) and imaged using a Kodak 440 Image Station.

CHO-α-tubulin-YFP cells = assay: α-tubulin-YFP localization in CHO-α-tubulin-YFP cells (fluorescence imaging); assay type: cell-based, Chinese hamster; conditions: for accumulation of tubulin-YFP at the centrosomes: 24 hours; for accumulation of tubulin in the centrosomes (overall statement): CHO-tubulin-YFP cells, concentration and time not given
From the text: Wild-type Chinese Hamster Ovary cells (WT CHO) cells were maintained in Ham's F-12 medium supplemented with 10% fetal bovine serum (FBS; HyClone, Logan, Utah). Cells of low density (˜20%) growing on 2-well chambered cover-slips (Labtek (Campbell, Calif.) or Fisher Scientific) were transfected with a mammalian expression vector encoding α-tubulin-YFP (Clontech, Palo Alto, Calif.) with the use of FuGENE 6 (Roche Molecular Biochemicals, Indianapolis, Ind.), according to the manufacturer's instructions. Twenty-four hours after transfection, the cells were cultured in 400 μg/ml G418 (Invitrogen, Carlsbad, Calif.)-containing selection medium for 2 weeks. Living cells were examined using a fluorescent microscope for α-tubulin-YFP expression. Cells in single colonies containing microtubules labeled with α-tubulin-YFP were lifted and expanded in G418-containing medium. Expression of α-tubulin-YFP was confirmed by the presence of the tubulin-YFP labeled microtubule pattern identical to immunostained microtubule pattern of non-transfected cells, as well as by subjecting the cells to Western blot analysis using an anti-GFP antibody (Roche Molecular Biochemicals, Basel, Switzerland) and confirming the correct mass of the α-tubulin-YFP chimera protein. Expressed tubulin-YFP was detected as a single band in Western blots. The tubulin-YFP expressing cell lines (referred as CHO-α-tubulin-YFP cells) were used in the studies.
CHO-α-tubulin-YFP cells were cultured in 2-well chambered cover-slips (Labtek (Campbell, Calif.) or Fisher Scientific) 24 hours before treatment. For comparison of the centrosomal effects of treatment with Compound 1, Compound 1+Taxol, and Taxol, CHO-α-tubulin-YFP cells were treated with Compound 1, Compound 1+Taxol, Taxol, or equivalent concentrations of DMSO-containing media for various time periods before imaging. For comparison of the effects of Compound 1 and known proteasome inhibitors on centrosomes, the nucleus, and perinuclear regions, CHO-α-tubulin-YFP cells were treated with Compound 1, ALLN (Calbiochem, San Diego, Calif.), lactacystin (Calbiochem, San Diego, Calif.) or MG132 (Calbiochem, San Diego, Calif.), and imaged at various time points from 3 hours to 24 hours after treatment.
Tubulin-YFP fluorescence in living cells or fixed cells was captured using a standard filter for FITC and objectives of 20× or 60× magnification on a Nikon TE300 microscope with a Leica DC50 color digital camera (Leica, Bannockburn, Ill.) or a CoolSnap HQ Monochrome CCD camera (Photonetrics, Tucson, Ariz.). The Leica DC50 and CoolSnapHQ cameras were controlled with Leica DC50 software and MetaVue/MetaMorph software, respectively (Universal Imaging Corp, Downingtown, Pa.).
CHO-α-tubulin-YFP cells were cultured in 2-well chambered cover-slips (Labtek (Campbell, Calif.) or Fisher Scientific) 24 hours before treatment. For comparison of effects on the centrosome, nucleus, and perinuclear regions, cells were treated with Compound 1 and known proteasome inhibitors including ALLN, MG132, Lactacystin, MG115, clasto-Lactacystin β-Lactone (cLβL), and Epoxomicin (10 μM final concentration for all except ALLN, which was used at 100 μM final concentration) (proteasome inhibitors were from Calbiochem, San Diego, Calif.) and imaged at various time points up to 24 hours during treatment.
Tubulin-YFP fluorescence in living cells or fixed cells was captured using a standard filter for FITC and objectives of 20× or 60× magnification on the Nikon TE300 microscope/digital imaging system.

26S proteasome = assay: Proteasome-sensor cells (HEK-293, GFP chimera), fluorescence imaging; assay type: cell-based; conditions: HEK-293, 100 nM, 24 hours
From the text: Specifically, the proteasome-sensor cells are HEK-293 cells stably transfected with a vector (proteasome-sensor vector) that encodes naturally-occurring reef coral Zoanthus sp. green fluorescent protein (GFP) fused to a specific degradation motif that targets the fusion protein for removal by the 26S proteasome. The background fluorescence observed in normal cells with active proteasomes is low. When proteasomes are inhibited, the fluorescent protein quickly accumulates. […] Millennium Pharmaceuticals, Inc., Cambridge, Mass.). […] Velcade (Millennium Pharmaceuticals Inc.) was used as a positive control in this assay (at 5 nM, 50 nM, 500 nM or 5 μM). Velcade stock solution was prepared according to the manufacturer's instructions. GFP fluorescence of the cells was imaged at various time points using a standard filter for FITC with the Nikon TE300 microscope/digital imaging system described herein.

[1] = biological target: T1, bovine red blood cell 20S proteasome (Bos taurus, UniProt Q32KL2); assay: 20S Proteasome Assay (in vitro, Suc-Leu-Val-Tyr-AMC); assay type: biochemical; conditions: isolated 20S proteasome
T1 construct: bovine red blood cell 20S proteasome; purchased Calbiochem; host or cells: purified from bovine red blood cells
Experimental: 190 μl of reaction buffer (500 mM HEPES, 10 nM EDTA, pH 7.6), containing 0.03% SDS was pre-incubated for 5 minutes at 37° C. in the presence of 0.2 μg of bovine red blood cell 20S proteasome (Calbiochem, San Diego, Calif.) for temperature equilibration. Subsequently, inhibitors or Compound 1 were added to the reaction mixture at a final DMSO concentration of 0.5%. The reaction was initiated by adding 10 μl of the peptide-AMC substrate (Calbiochem, San Diego, Calif.) to each well. The emitted fluorescence was then measured every third minute at 37° C. for 90 minutes by a fluorescence plate reader (FlexStation II, Molecular Devices, Sunnyvale, Calif.) at 460 nm (λex360 nm) wavelength.
The buffers and reagents for the assay were purchased from Calbiochem (20S Proteasome Assay Kit; Calbiochem, San Diego, Calif.). The principle of the assay is that the release of free AMC (7-Amino-4-methylcoumarin) following degradation of the substrate results in a fluorescent signal that is a measure of proteasome activity. The quantitative analysis of 20S proteasome activity was assayed as described.

[2] = test system: MDA-435 breast cancer cells; assay: Multi-ubiquitin Western blotting in MDA-435 cells; assay type: cell-based; conditions: for increase of ubiquitinated proteins of the cell lysates: 500 nM
Experimental: Louis, Mo.) immediately before use, on ice for 1 hour. After scraping, the lysates were cleared by centrifugation at 13,000 RPM for 10 minutes at 4° C. Protein content was determined using a Bradford assay and bovine serum albumin as a standard (Bio-Rad Laboratories, Hercules, Calif.). Samples were solubilized by boiling in SDS sample buffer and subjected to SDS-PAGE. The proteins were subsequently transferred to a PVDF membrane (Bio-Rad, Hercules, Calif.). […] The alkaline phosphatase-conjugated secondary antibodies (Invitrogen, Carlsbad, Calif.) were diluted in blocking buffer and incubated with the blot for 1 hour at room temperature. The secondary antibodies were detected by the Western Breeze Chemiluminescent Kit (Invitrogen, Carlsbad, Calif.) and imaged using a Kodak 440 Image Station. Proteins targeted for degradation by the ubiquitin-dependent proteolytic pathway are tagged with multi-ubiquitin molecules. […] In this assay, accumulation of multi-ubiquitinated proteins in the cells is indicative of the impairment of proteasome activity.

Compound	effect on cell morphology (CHO cells; CHO cells, 10 nM, up to 210 minutes)	cell death (CHO cells; cells, after a certain period of treatment)	percentage change in Hsp70 expression relative to DMSO control (Hsp70; 6 hours of treatment) [%]	percentage change in Hsp70 expression relative to DMSO control (Hsp70; 24 hours of treatment) [%]	accumulation of tubulin-YFP at the centrosomes (CHO-α-tubulin-YFP cells; CHO cells, 0.1 μM)	accumulation of tubulin in the centrosomes (overall statement) (CHO-α-tubulin-YFP cells)	accumulation of proteasome-sensor protein in cells (26S proteasome)	proteasome inhibitory activity in vitro (overall statement) [1]	proteasome activity in vitro ([1]; 5 nM)	increase of ubiquitinated proteins of the cell lysates ([2]; 6 hours of treatment in cell culture)	increase of ubiquitinated proteins of the cell lysates ([2]; 24 hours of treatment in cell culture)	accumulation of multi-ubiquitinated proteins ([2]; MDA-435 cells, 0.5 μM, 6 and 24 hours)	induction of Hsp70 expression (Hsp70; 6 and 24 hours)	accumulation of α-tubulin-YFP at the centrosomes (CHO-α-tubulin-YFP cells; CHO cells, 10 μM, 5 hours)	accumulation of α-tubulin-YFP in the nucleus (CHO-α-tubulin-YFP cells; CHO cells, 10 μM, 8 hours post-treatment)	accumulation of tubulin-YFP at the centrosomes (CHO-α-tubulin-YFP cells; CHO cells, 10 μM)	accumulation of tubulin at the centrosomes versus in the nucleus (overall statement) (CHO-α-tubulin-YFP cells; cells treated, concentration not given)
CC(=O)O[C@H]1C(=O)[C@@]2(C)[C@H]([C@H](OC(=O)c3ccccc3)[C@]3(O)C[C@H](OC(=O)[C@H](O)[C@@H](NC(=O)c4ccccc4)c4ccccc4)C(C)=C1C3(C)C)[C@]1(OC(C)=O)CO[C@@H]1C[C@@H]2O [Taxol]	did not cause significant cell morphological changes	cause cell death after a certain period of treatment	86	556	lack of accumulation of tubulin-YFP at the centrosomes	no such effect	lack of proteasome-sensor protein in cells	–	–	–	–	–	–	–	–	–	–
CC(C)C[C@@H](C=O)NC(=O)[C@H](CC(C)C)NC(=O)[C@H](CC(C)C)NC(=O)OCc1ccccc1 [MG132] (Cbz-Leu-Leu-Leu-aldehyde)	–	–	472	3016	–	caused accumulation of tubulin-YFP at the centrosomes and in the perinuclear region	–	exhibited proteasome inhibitory activity	detectable decrease in proteasome activity	212.58	357.82	caused similar accumulation of multi-ubiquitinated proteins	not as potent an inducer as Compound 1; also recorded: also induced Hsp70 expression after 6 and 24 hours of treatment, but did so less potently than Compound 1 or Compound 1+Taxol	accumulation of α-tubulin-YFP at the centrosomes and perinuclear regions	accumulation of α-tubulin-YFP in the nucleus; also recorded: caused the accumulation of YFP-tubulin in the nucleus	accumulation of tubulin-YFP at the centrosomes	both accumulation of tubulin at the centrosomes and in the nucleus
